In paper PMC5039532, “Design and Synthesis of Analogues of Marine Natural Product Galaxamide, an N-methylated Cyclic Pentapeptide, as Potential Anti-Tumor Agent in Vitro” (Marine Drugs, 2016):
In brackets after ≈: the same amount, converted by molar mass. Where a SMILES comes first, the peptide text is derived from it. [ ]: non-standard residue; d: D form. NMeL = CN[C@@H](CC(C)C)C(=O)O

What was measured:
[1] = system: drug-resistant lung cancer cell line A549/DPP; type: cell-based, human; details: 48 h
Description: (§1) Lung cancer A549, drug-resistant lung cancer A549-DPP, human hepatocellular carcinoma HepG2 and hepatocellular carcinoma SMMC-7721 cells obtained from the China cell bank of the Institute of Biochemistry and were cultured in DMEM culture medium (DMEM, Corning, NY, USA) containing 10% fetal bovine serum (FBS, Hyclone, Logan, UT, USA), 1% penicillin-streptomycin and an antifungal agent in a 5% CO2 humidified atmosphere at 37 °C. The culture medium was replaced once in a day. Trypsin digestion method was adopted for cell propagation. Upon reaching 80%–90% confluence, the cells were rinsed twice with PBS. A certain amount of 0.25% trypsin digestion solution was then added and maintained for 3–5 min at 37 °C. Afterward, DMEM culture medium containing 10% fetal bovine serum was added to terminate the digestion. The cells were then blown well to form single cell suspensions.
(§2) The cell viability was determined by measuring the ability of cells to transform MTT (Genview, Houston, TX, USA) to a purple formazan dye. The cells were seeded in 96-well tissue culture plates at 2.5 × 10^3 cells/well for 24 h. The cells were then incubated with galaxamide and its analogues for 48 h. After incubation, 20 μL/well of MTT solution (5 mg/mL phosphate buffered saline) were added and incubated for 5 h. The medium was aspirated and replaced with 100 μL/well of DMSO to dissolve the formazan salt. The color intensity of the formazan solution, which reflects the cell growth condition, was measured at 570 nm using a microplate spectrophotometer (SpectroAma™ 250, Winooski, VT, USA).

[2] = system: hepatocellular carcinoma SMMC-7721 cells; type: cell-based, human; details: 48 h
Description: as §1, §2

[3] = system: Lung cancer cell line A549; type: cell-based, human; details: 48 h
Description: as §1, §2

SMMC-7721 cells [4] = assay: Cell apoptotic analysis, annexin V/PI staining, flow cytometry; type: cell-based, human; details: 4, 8 and 16 μg/mL, 48 h, annexin V/PI double staining
Description: The apoptotic cells were quantified using an Annexin V-FITC (Sigma-Aldrich, St. Louis, MO, USA) cell apoptosis assay kit according to instruction provided with kit. In brief, about 1.5 × 10^5 cells were plated in 6-well plates and treated with galaxamide and representative analogues (4, 8, 16 μg/mL) for 48 h. The cells were resuspended in […] binding buffer. Afterward, […] annexin V-fluorescein isothiocyanate (FITC) was added and then incubated in darkness at room temperature for 10 min. The cells were again resuspended in […] binding buffer and stained with […] PI. The prepared cells were then analyzed using a flow cytometry (Coulter Epics Elite, Miami, FL, USA). The cells in the FITC-positive and PI-negative fraction were regarded as apoptotic cells.

SMMC-7721 cells [5] = assay: Cell morphological observation, Hoechst33342 staining; type: cell-based, human; details: 4, 8 and 16 μg/mL, 48 h, fluorescence microscopy
Description: Exponentially growing SMMC-7721 cells (1 × 10^5 cells/mL) were incubated for 48 h with 4, 8, 16 μg/mL of galaxamide and representative analogues. Apoptotic nuclear morphology was visualized by the Hoechsst33342 staining technique. Cells were fixed with 3.7% of paraformaldehyde for 10 min at room temperature and washed three times with PBS. After fixation, cells were stained using Hoechsst33342 (10 μg/mL) and incubated in the darkness for 10 min. After washing three times with PBS, cells were visualized using fluorescence microscope.

SMMC-7721 cells [6] = assay: Cell cycle analysis by PI staining and flow cytometry; type: cell-based, human; details: 4, 8 and 16 μg/mL, 48 h
Description: SMMC-7721 cells with the density of about 1.5 × 10^5 were incubated with galaxamide and representative analogues (4, 8, 16 μg/mL) for 48 h. Afterwards, collected cells were washed twice with PBS and centrifugation (1000 rpm, 5 min), then fixed using 70% ethanol for 12 h at 4 °C. Ethanol was removed by centrifugation (2000 rpm, 5 min), and the cells were washed twice with PBS. Cells were then resuspended in […] PI and kept at 37 °C for 15 min. The cell cycle was analyzed by flow cytometry measuring the amount of PI-labeled DNA in fixed cells.

[7] = system: human hepatocellular carcinoma HepG2; type: cell-based; details: 48 h
Description: as §1, §2

CC(C)C[C@@H]1NC(=O)[C@H](CC(C)C)NC(=O)[C@@H](Cc2ccccc2)NC(=O)[C@H](CC(C)C)N(C)C(=O)[C@@H](CC(C)C)NC1=O [Compound 22, cyclo(D-Phe-Leu-Leu-D-Leu-N-Me-Leu)]
IC50 Value A549-DPP [1]: 12.22 µg/mL (≈ 19.9 µM)
IC50 Value SMMC-7721 [2]: 1.44 µg/mL (≈ 2.35 µM)
IC50 Value A549 [3]: 9.4 µg/mL (≈ 15.3 µM)
induction of apoptosis (in words) (SMMC-7721 cells [4]): induced SMMC-7721 cell apoptosis in dose-dependent manner
morphological changes (in words) (SMMC-7721 cells [5]): resulted in cell detachment from cell culture plates
cell-cycle arrest (in words) (SMMC-7721 cells [6]): arresting the cell cycle in the G0/G1 phase
IC50 Value HepG2 [7]: 6.41 µg/mL (≈ 10.4 µM)

CC(C)C[C@@H]1NC(=O)[C@@H](Cc2ccccc2)NC(=O)[C@H](CC(C)C)N(C)C(=O)[C@H](CC(C)C)NC(=O)[C@@H](CC(C)C)NC1=O [Compound 23, cyclo(D-Phe-Leu-D-Leu-Leu-N-Me-Leu)]
IC50 Value A549-DPP [1]: 9.13 µg/mL (≈ 14.9 µM)
IC50 Value SMMC-7721 [2]: 4.32 µg/mL (≈ 7.04 µM)
IC50 Value A549 [3]: 5.85 µg/mL (≈ 9.53 µM)
IC50 Value HepG2 [7]: 26.62 µg/mL (≈ 43.4 µM)

CC(C)C[C@@H]1NC(=O)[C@H](Cc2ccccc2)NC(=O)[C@@H](CC(C)C)NC(=O)[C@@H](CC(C)C)NC(=O)[C@@H](CC(C)C)N(C)C1=O [Compound 3, cyclo(Phe-Leu-D-N-Me-Leu-D-Leu-D-Leu)]
IC50 Value A549-DPP [1]: 11.41 µg/mL (≈ 18.6 µM)
IC50 Value SMMC-7721 [2]: 2.77 µg/mL (≈ 4.51 µM)
IC50 Value A549 [3]: 5.17 µg/mL (≈ 8.42 µM)
IC50 Value HepG2 [7]: 18.82 µg/mL (≈ 30.7 µM)

CC(C)C[C@@H]1NC(=O)[C@H](CC(C)C)N(C)C(=O)[C@H](CC(C)C)NC(=O)[C@H](CC(C)C)N(C)C(=O)[C@H](CC(C)C)NC1=O [Galaxamide, galaxamide] (cyclo(LL[NMeL]L[NMeL]))
morphological changes (in words) (SMMC-7721 cells [5]): resulted in cell detachment from cell culture plates
cell-cycle arrest (in words) (SMMC-7721 cells [6]): arresting the cell cycle in the G0/G1 phase
